Reference: ChEMBL document CHEMBL5465560, “Selectivity Literature for EUbOPEN Chemogenomic Library” (2024)
Blank lines part the entries; values can stand above or below the compound they belong to.

Assays:
[1] = biological target: Mitogen-activated protein kinase kinase kinase 9 (Homo sapiens) (UniProt P80192); conditions: at 10 µM
[2] = biological target: Tyrosine-protein kinase HCK (Homo sapiens) (UniProt P08631); assay: Selectivity interaction (ActivX KiNativ screen (kinase selectivity in THP-1 cell lysates)) EUB0000639a HCK; assay type: subcellular; conditions: lysate
[3] = biological target: Serine/threonine-protein kinase 24 (Homo sapiens) (UniProt Q9Y6E0); assay: Selectivity interaction (Kinase panel (Invitrogen)) EUB0000639a STK24; conditions: at 200 nM
[4] = biological target: T1, Dual serine/threonine and tyrosine protein kinase (Homo sapiens) (UniProt Q6XUX3); assay: Selectivity interaction (ProQinase) EUB0000171b DSTYK
T1 sequence (whole entry): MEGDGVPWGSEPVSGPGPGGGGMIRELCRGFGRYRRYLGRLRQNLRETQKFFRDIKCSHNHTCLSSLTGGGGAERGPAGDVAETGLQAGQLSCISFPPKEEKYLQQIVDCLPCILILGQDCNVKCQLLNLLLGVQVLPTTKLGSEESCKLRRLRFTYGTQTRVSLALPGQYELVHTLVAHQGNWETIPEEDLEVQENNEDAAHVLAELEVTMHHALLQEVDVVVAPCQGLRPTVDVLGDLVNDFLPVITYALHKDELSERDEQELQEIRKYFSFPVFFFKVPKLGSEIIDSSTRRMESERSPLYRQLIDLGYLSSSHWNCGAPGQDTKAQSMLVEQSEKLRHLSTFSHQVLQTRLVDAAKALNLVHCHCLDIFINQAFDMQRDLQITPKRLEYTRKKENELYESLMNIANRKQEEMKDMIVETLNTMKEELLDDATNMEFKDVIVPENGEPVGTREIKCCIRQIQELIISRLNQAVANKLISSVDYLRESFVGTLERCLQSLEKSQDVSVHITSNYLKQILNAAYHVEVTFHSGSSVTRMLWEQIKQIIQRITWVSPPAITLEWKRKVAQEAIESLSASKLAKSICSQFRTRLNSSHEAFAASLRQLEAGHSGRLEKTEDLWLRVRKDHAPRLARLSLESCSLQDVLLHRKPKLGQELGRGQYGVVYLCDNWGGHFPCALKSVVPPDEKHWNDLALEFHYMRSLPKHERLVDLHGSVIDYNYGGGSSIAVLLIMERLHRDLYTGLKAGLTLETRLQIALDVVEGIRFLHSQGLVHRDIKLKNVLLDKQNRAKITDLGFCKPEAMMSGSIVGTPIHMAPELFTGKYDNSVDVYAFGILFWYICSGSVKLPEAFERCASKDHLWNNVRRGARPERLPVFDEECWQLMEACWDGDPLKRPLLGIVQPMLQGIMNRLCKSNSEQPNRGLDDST

Adenosine receptor A2a = Adenosine receptor A2a (Homo sapiens, UniProt P29274); assay: Selectivity interaction (Panel of non-epigenetic targets (kinases, GPCRs, ion channels, and transporters, Eurofins) ) EUB0000271b ADORA2A; conditions: at 1 µM
[5] = biological target: T2, Cyclin-G-associated kinase (Homo sapiens) (UniProt O14976); assay: Selectivity interaction (KinomeScan (DiscoverX)) EUB0000595a GAK; conditions: at 10 µM
T2 sequence (whole entry): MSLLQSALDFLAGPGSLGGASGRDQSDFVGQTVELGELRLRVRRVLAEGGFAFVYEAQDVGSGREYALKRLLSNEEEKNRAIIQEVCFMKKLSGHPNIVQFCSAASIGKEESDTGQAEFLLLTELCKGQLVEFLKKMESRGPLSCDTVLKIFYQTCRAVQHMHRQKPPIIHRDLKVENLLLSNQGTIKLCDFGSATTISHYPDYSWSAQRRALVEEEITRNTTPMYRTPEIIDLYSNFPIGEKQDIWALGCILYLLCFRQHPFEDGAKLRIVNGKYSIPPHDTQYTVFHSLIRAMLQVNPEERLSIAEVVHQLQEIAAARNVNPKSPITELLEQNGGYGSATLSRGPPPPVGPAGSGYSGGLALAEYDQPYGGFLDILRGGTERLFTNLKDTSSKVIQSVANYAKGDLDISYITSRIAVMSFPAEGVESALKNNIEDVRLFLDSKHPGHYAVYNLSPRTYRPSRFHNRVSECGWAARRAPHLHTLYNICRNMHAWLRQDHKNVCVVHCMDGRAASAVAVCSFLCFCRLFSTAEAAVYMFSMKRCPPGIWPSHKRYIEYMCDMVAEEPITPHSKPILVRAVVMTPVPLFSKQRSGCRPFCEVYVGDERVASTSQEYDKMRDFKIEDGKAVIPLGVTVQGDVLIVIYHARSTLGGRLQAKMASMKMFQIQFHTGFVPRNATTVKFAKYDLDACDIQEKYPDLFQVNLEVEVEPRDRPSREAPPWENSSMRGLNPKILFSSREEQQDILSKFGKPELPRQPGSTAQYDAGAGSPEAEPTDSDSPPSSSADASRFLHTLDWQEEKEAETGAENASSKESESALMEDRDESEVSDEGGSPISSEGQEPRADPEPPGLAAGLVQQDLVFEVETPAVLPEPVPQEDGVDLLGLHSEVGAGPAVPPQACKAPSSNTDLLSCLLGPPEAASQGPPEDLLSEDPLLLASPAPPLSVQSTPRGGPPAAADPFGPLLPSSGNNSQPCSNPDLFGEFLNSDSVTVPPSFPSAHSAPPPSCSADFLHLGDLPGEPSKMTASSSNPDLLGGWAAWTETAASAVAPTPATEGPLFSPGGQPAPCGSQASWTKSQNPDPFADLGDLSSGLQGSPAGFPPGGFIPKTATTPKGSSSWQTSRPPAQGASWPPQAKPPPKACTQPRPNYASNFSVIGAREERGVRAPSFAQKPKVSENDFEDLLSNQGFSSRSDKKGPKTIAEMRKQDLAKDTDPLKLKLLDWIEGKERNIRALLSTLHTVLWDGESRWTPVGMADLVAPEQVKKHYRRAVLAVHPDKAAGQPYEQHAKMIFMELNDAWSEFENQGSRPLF

[6] = biological target: Serine/threonine-protein kinase PAK 3 (Homo sapiens) (UniProt O75914); assay: Selectivity interaction (KinomeScan (DiscoverX)) EUB0001049a PAK3; conditions: at 1 µM
[7] = biological target: Cyclin-dependent kinase 8 (Homo sapiens, UniProt P49336); assay: Selectivity interaction (Ambit KINOMEscan and KiNATiv profiling in Jurkat cells) EUB0000090b CDK8; assay type: cell-based; conditions: at 1 µM
Misshapen-like kinase 1 = Misshapen-like kinase 1 (Homo sapiens, UniProt Q8N4C8); assay: Selectivity interaction (KinomeScan (DiscoverX)) EUB0000618a MINK1; conditions: at 10 µM
[8] = biological target: Ephrin type-A receptor 5 (Homo sapiens) (UniProt P54756); assay: Selectivity interaction (KinomeScan (DiscoverX)) EUB0001619a EPHA5; conditions: at 1 µM
[9] = biological target: Interleukin-1 receptor-associated kinase 1 (Homo sapiens) (UniProt P51617); assay: Selectivity interaction (ActivX KiNativ screen (ex vivo kinase selectivity in human PBMCs)) EUB0001619a IRAK1; assay type: cell-based; conditions: PBMC, at 1 µM
Chain of Interleukin-1 receptor-associated kinase 1 (Homo sapiens) (P51617 whole entry, looked up): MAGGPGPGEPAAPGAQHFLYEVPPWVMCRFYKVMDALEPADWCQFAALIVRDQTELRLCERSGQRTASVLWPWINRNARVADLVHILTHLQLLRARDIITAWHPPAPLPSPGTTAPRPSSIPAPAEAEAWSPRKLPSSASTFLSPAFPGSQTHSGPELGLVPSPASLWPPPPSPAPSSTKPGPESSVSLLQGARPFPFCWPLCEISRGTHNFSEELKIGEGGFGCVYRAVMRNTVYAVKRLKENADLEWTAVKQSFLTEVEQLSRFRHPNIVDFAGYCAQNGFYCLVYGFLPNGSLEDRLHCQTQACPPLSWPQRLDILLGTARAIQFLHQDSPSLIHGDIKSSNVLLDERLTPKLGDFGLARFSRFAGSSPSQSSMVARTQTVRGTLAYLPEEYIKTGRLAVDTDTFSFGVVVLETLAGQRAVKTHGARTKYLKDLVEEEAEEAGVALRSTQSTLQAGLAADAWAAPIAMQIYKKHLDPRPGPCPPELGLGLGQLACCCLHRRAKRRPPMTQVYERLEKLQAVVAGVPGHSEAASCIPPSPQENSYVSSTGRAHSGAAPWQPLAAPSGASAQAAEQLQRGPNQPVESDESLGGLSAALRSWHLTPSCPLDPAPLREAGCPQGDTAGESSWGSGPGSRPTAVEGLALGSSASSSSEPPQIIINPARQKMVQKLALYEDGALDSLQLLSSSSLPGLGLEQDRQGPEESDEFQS

Chain of Tyrosine-protein kinase HCK (Homo sapiens) (P08631 2-526 limits assumed): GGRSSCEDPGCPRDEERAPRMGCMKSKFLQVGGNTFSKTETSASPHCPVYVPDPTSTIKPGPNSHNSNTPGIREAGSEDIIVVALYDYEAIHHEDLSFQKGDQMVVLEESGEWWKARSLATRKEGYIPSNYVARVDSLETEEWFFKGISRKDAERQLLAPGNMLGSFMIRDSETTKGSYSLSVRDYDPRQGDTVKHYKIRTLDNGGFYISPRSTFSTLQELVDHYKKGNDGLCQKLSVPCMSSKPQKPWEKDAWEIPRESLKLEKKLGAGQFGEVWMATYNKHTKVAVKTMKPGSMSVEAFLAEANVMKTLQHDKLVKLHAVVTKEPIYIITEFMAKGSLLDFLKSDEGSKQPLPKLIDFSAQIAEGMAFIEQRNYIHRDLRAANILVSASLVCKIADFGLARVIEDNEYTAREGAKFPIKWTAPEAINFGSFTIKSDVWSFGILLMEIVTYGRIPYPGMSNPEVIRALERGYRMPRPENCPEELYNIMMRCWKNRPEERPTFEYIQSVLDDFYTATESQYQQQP
Chain of Ephrin type-A receptor 5 (Homo sapiens) (P54756 whole entry): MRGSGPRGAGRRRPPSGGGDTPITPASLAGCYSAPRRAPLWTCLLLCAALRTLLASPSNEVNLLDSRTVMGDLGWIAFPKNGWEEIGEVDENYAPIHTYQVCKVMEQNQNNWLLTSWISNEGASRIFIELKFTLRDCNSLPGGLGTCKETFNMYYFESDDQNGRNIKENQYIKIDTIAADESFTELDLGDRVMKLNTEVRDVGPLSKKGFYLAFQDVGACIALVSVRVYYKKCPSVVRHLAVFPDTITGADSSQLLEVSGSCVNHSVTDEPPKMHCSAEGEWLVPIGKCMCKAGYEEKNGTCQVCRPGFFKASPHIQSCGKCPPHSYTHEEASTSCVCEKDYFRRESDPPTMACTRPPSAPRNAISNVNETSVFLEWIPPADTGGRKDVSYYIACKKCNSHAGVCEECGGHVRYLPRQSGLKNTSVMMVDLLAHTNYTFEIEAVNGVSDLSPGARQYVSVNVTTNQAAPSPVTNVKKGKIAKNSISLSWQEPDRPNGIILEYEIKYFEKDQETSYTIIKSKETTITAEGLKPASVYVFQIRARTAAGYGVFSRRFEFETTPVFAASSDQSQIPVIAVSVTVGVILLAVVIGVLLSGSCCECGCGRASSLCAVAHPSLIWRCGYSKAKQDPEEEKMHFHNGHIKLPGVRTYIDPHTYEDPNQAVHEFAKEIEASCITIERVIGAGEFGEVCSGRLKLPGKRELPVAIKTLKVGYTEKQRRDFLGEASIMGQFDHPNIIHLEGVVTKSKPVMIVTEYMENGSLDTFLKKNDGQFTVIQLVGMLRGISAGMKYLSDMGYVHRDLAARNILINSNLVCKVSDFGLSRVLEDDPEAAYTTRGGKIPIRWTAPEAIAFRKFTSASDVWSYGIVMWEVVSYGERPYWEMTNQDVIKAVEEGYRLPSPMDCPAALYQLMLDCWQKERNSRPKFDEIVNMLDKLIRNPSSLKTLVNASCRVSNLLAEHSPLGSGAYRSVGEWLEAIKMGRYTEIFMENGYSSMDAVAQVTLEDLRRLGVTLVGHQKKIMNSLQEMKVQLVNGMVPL
Chain of Serine/threonine-protein kinase 24 (Homo sapiens) (Q9Y6E0 whole entry, looked up): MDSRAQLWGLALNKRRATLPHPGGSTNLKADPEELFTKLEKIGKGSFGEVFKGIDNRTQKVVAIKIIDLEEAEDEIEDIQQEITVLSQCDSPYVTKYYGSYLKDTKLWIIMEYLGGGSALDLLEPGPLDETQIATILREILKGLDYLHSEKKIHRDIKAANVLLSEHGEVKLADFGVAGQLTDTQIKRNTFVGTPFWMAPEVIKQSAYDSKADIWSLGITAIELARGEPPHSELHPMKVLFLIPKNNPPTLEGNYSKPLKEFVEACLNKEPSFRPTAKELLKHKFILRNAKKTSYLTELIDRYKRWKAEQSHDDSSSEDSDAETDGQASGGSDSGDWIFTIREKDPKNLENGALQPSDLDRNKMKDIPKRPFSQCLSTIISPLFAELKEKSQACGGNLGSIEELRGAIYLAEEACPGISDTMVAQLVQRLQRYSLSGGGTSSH
Chain of Adenosine receptor A2a (P29274 whole entry): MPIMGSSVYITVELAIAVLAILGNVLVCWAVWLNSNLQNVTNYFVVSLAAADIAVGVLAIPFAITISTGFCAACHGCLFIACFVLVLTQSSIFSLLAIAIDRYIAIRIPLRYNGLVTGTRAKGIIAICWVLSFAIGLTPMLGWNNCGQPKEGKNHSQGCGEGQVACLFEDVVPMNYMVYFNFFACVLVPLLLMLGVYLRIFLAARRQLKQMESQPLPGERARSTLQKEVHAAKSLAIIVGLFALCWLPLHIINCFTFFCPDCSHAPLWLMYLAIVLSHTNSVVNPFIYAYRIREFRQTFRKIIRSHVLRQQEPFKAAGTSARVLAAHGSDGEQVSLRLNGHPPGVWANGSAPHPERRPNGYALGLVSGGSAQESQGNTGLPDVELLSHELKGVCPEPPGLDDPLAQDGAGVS
Chain of Cyclin-dependent kinase 8 (P49336 whole entry): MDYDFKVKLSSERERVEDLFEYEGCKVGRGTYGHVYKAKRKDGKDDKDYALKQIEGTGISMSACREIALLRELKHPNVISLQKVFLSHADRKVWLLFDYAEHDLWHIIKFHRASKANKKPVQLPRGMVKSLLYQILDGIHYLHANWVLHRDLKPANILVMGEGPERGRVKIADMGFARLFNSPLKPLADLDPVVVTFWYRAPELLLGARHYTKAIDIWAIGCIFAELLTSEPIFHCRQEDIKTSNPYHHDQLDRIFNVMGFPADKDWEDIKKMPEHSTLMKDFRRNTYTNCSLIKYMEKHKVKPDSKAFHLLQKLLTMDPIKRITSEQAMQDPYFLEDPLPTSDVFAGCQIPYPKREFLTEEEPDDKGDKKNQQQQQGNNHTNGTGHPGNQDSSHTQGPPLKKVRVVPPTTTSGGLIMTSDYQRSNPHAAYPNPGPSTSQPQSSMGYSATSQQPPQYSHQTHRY
Chain of Misshapen-like kinase 1 (Q8N4C8 whole entry, looked up): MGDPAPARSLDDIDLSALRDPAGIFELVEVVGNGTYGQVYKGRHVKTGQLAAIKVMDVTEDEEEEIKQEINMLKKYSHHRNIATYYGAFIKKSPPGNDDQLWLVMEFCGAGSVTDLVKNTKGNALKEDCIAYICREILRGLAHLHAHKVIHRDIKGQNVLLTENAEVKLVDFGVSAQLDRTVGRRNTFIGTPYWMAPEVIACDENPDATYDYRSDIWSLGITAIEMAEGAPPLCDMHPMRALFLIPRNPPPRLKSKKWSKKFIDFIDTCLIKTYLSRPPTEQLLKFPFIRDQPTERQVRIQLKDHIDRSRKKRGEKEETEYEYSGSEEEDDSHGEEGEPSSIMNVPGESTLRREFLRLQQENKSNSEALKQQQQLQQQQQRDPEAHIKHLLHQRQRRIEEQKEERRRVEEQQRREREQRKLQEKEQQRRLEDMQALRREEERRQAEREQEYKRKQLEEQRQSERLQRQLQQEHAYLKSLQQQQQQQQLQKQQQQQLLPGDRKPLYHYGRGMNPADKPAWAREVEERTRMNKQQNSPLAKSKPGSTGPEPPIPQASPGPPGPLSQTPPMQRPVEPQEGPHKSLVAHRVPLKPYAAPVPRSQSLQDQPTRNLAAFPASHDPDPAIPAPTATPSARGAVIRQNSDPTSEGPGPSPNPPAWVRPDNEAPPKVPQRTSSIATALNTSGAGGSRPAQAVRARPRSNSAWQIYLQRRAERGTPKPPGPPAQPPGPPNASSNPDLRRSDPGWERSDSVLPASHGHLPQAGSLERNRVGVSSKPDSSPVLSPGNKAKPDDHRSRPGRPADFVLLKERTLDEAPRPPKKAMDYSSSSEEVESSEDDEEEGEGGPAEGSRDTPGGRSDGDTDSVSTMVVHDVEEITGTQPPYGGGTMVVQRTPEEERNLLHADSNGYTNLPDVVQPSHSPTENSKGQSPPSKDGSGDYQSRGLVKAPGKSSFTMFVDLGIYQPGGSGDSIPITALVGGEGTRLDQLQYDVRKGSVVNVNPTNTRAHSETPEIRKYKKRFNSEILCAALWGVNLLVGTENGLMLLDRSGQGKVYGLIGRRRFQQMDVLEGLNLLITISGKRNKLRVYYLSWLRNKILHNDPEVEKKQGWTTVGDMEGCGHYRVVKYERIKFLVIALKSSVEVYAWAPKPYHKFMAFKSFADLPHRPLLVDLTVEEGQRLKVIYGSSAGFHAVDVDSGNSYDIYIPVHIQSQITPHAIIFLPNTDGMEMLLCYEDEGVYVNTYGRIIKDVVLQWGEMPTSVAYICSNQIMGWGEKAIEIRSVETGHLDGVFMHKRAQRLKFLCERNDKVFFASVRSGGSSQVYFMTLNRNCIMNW

% of control [1]: 100%
SMILES: CCN(CC)CCCCNc1ncc2cc(-c3cc(OC)cc(OC)c3)c(NC(=O)NC(C)(C)C)nc2n1

% of inhibition ([2]; at 0.01 µM): -5.9% | % of inhibition ([2]; at 0.04 µM): -8.6% | % of inhibition ([2]; at 0.2 µM): -9.9% | % of inhibition ([2]; at 1 µM): -4.8% | % of inhibition ([2]; at 5 µM): -3.1% | % of inhibition [3]: 23.2%
SMILES: CC[C@@H]1[C@H](F)C(=O)N[C@@H]1COc1nccc2cc(C(N)=O)c(OC)cc12 [ZIMLOVISERTIB]

% of control ([4]; at 1 µM): 90% | % of control ([4]; at 5 µM): 67%
SMILES: C=CC(=O)Nc1cccc(C(=O)Nc2ccc(Nc3cc(-c4[nH]c(SC)nc4C)ccn3)cc2)c1

SMILES: Cc1cc(C)cc([C@@H]2c3cc(C)ccc3NC(=O)CN2C(=O)c2ccc(Br)s2)c1
% of inhibition (Adenosine receptor A2a): 2%

SMILES: COCC(=O)NC/C=C/c1ccc2ncnc(Nc3ccc(Oc4ccc(C)nc4)c(C)c3)c2c1 [CP-724714]
% of control [5]: 84%

SMILES: COc1cc(Nc2nc(C)cc(-c3cnn4nc(OC)ccc34)n2)cc(C(F)(F)F)c1
% of control [6]: 85%

SMILES: CN(C)C/C=C/C(=O)Nc1ccc(C(=O)N2CCCC(Nc3ncc(Cl)c(-c4c[nH]c5ccccc45)n3)C2)cc1 (stereo unspecified)
% of control [7]: 100%

SMILES: O[C@H]1CC[C@H](Nc2ncc3nc(Nc4c(F)cc(F)cc4F)n([C@H]4CCOC4)c3n2)CC1
% of control (Misshapen-like kinase 1): 71%

SMILES: N#Cc1cccc(-c2c[nH]c3ncnc(N4CCOCC4)c23)c1
% of control [8]: 99% | % of inhibition [9]: 2%
